Test results as given in patent publication US9309276B2, “Synthetic lipid A derivative” (University of Georgia Research Foundation, Inc., priority 2007, dated 2016).
Like-named read-outs stand apart in the source and are kept apart here.

Assays:
Assay type in all cases: cell-based
RAW 264.7 γNO(−) cells = assay: Cytokine induction and ELISAs in mouse macrophages (RAW 264.7 γNO(−) cells); conditions: for EC50: Example II, ELISA, best-fit value; for EC50 / TNF-α and IFN-β production, dose response (in words): supernatant, 5.5 h; for TNF-α and IFN-β production, dose response (in words): wide range of concentrations
Procedure: Mouse macrophages (RAW 264.7 γNO(−) cells) were exposed over a wide range of concentrations to compounds 1-5 and E. coli 055:B5 LPS. After 5.5 hours, the supernatants were harvested and examined for mouse TNF-α and IFN-β using a commercial and in-house developed capture ELISA assay, respectively. Potencies (EC50, concentration producing 50% activity) and efficacies (maximal level of production) were determined by fitting the dose-response curves to a logistic equation using PRISM software. […] It has also been shown that removal of the KDO moieties by mild acidic treatment reduces cellular responses (Demchenko et al., J. Am. Chem. Soc. 2003, 125, 6103-6112).
Having established the EC50 values of TNF-α and IFN-β secretion by compounds 1-5 and E. coli 055:B5 LPS, attention was focused on IL-6, IP-10, RANTES, and IL-1β responses. Thus, the previously harvested supernatants were analyzed for these cytokines using capture ELISA assays (FIG. 4, Table 1). For IL-6, IP-10, and RANTES, a short incubation time of 5.5 hrs was sufficient for detection. To achieve significant IL-1β secretion, the incubation had to be extended to 24 hrs. […] IL-1β is expressed as a pro-protein (pro-IL-1β), which is cleaved by caspase-1 into its active form (IL-1β), which is then secreted. Indeed, analyzing IL-1β of the cell lysates by Western blotting confirmed that it was present as a pro-protein (data not shown). TNF-α is also produced as a pro-protein, which is proteolitically cleaved by tumor necrosis factor-α converting enzyme (TACE) (Skotnicki and Levin, Annu. Rep. Med. Chem. 2003, 38, 153-162; Duffy et al., Thromb. Haemost. 2003, 89, 622-631). […] Furthermore, for each of the synthetic compounds and LPS, EC50 values of secreted TNF-α and intracellular pro-IL-1β were very similar. However, EC50 values for secreted mature IL-1β were larger by as much as 100-fold.
RAW 264.7 γNO(−) cells were plated on the day of the exposure assay as 2×10^5 cells/well in 96-well tissue culture plates (Nunc). Cells were incubated with different stimuli for 5.5 and 24 hours in replicates of five. Culture supernatants were then collected, pooled, and stored frozen (−80° C.) until assayed for cytokine production. After removal of the supernatant, cells were lysed by adding PBS containing Tween 20 (0.01%) and BSA (1%) in the same volume as that of the supernatant and sonicating for 5 min. The cell lysates were pooled and stored frozen (−80° C.) until assayed for cytokine production.
All cytokine ELISAs were performed in 96-well MaxiSorp plates (Nunc). Cytokine DuoSet ELISA Development Kits (R&D Systems) were used for the cytokine quantification of mouse TNF-α, IL-6, IP-10, RANTES, and IL-1β according to the manufacturer's instructions. The absorbance was measured at 450 nm with wavelength correction set to 540 nm using a microplate reader (BMG Labtech). Concentrations of IFN-β in culture supernatants were determined as follows. ELISA MaxiSorp plates were coated with rabbit polyclonal antibody against mouse IFN-β (PBL Biomedical Laboratories). IFN-β in standards and samples was allowed to bind to the immobilized antibody. Rat anti-mouse IFN-β antibody (USBiological) was then added, producing an antibody-antigen-antibody “sandwich”. Next, horseradish peroxidase (HRP) conjugated goat anti-rat IgG (H+L) antibody (Pierce) and a chromogenic substrate for HRP 3,3′,5,5′-tetramethylbenzidine (TMB; Pierce) were added. After the reaction was stopped, the absorbance was measured at 450 nm with wavelength correction set to 540 nm. All cytokine values are presented as the means±SD of triplicate measurements, with each experiment being repeated three times.
Concentration-response data were analyzed using nonlinear least-squares curve fitting in Prism (GraphPad Software, Inc.). […] The Hillslope was set at 1 to be able to compare the EC50 values of the different inducers. […]

mouse TLR2 = molecular target: T1, mouse TLR2 (Mus musculus, UniProt Q9QUN7); assay: NF-κB activation in HEK 293T cells stably transfected with mouse TLR2; conditions: 103/104 at 0.1, 1 and 10 μg mL−1; Pam3CysSK4 1 μg mL−1; 4 h
T1 construct: host or cells: HEK 293T
T1 sequence (Q9QUN7 25-784): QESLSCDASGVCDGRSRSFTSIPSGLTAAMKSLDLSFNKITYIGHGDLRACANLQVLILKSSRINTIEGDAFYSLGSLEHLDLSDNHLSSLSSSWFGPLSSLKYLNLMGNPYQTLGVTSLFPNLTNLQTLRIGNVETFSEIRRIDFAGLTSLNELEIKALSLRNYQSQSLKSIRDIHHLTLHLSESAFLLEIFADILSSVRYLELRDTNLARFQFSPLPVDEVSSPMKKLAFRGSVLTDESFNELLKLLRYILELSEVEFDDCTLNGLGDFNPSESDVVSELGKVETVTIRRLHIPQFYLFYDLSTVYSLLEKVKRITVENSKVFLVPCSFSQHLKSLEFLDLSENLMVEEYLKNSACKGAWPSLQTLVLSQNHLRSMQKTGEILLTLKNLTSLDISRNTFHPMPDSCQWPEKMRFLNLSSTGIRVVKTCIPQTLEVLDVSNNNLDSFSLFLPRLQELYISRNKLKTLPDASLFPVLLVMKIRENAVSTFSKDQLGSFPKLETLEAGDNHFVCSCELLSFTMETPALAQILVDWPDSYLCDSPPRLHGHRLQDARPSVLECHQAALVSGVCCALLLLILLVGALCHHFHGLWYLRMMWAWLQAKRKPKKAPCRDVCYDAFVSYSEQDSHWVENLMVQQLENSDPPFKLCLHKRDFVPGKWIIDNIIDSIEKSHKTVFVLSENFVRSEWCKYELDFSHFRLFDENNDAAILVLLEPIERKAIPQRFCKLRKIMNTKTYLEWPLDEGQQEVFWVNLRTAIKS
Procedure: (§1) Induction of NF-κB activation was determined in triplicate cultures of HEK 293T cells stably transfected with human or mouse (a) TLR4/MD2/CD14 and (b) TLR2 and transiently transfected with pELAM-Luc and pRL-TK plasmids. Forty-four h post-transfection, cells were treated with (B) E. coli LPS (10 ng mL^−1), (C) Pam3CysSK4 (1 μg mL^−1), (D, E and F) 103 (0.1, 1 and 10 μg mL^−1, respectively), (G, H and I) 104 (0.1, 1 and 10 μg mL^−1, respectively) or (A) were left untreated (control). Forty-eight h post-transfection, NF-κB activation was determined by firefly luciferase activity relative to Renilla luciferase activity. n.a. indicates not analyzed.
(§2) To examine the ability of the synthetic compounds to induce activation of NF-κB, HEK 293T cells were employed that were stably transfected with various immune receptors and transiently transfected with a plasmid containing the reporter gene pELAM-Luc (NF-κB-dependent firefly luciferase reporter vector) and a plasmid containing the control gene pRL-TK (Renilla luciferase control reporter vector) (FIG. 11). […] Although compound 104 is a weak activator of mouse TLR4, it could not induce the secretion of cytokines.
(§3) The day before transfection, HEK 293T wild type cells and HEK 293T cells stably transfected with human and murine TLR4/MD2/CD14 and human and murine TLR2 were plated in 96-well tissue culture plates (16,000 cells/well). The next day, cells were transiently transfected using PolyFect Transfection Reagent (Qiagen) with expression plasmids pELAM-Luc (NF-κB-dependent firefly luciferase reporter plasmid, 50 ng/well) (Chow et al., J. Biol. Chem., 1999, 274, 10689-10692) and pRL-TK (Renilla luciferase control reporter vector, 1 ng/well; Promega) as an internal control to normalize experimental variations. […] The luciferase activity was measured using the Dual-Luciferase Reporter Assay System (Promega) according to the manufacturer's instructions and a combination luminometer/fluorometer microplate reader (BMG Labtech). […]

human TLR2 = molecular target: T2, human TLR2 (Homo sapiens, UniProt O60603); assay: NF-κB activation in HEK 293T cells stably transfected with human TLR2; conditions: 103/104 at 0.1, 1 and 10 μg mL−1; Pam3CysSK4 1 μg mL−1; 4 h
T2 construct: host or cells: HEK 293T
T2 sequence (O60603 21-784): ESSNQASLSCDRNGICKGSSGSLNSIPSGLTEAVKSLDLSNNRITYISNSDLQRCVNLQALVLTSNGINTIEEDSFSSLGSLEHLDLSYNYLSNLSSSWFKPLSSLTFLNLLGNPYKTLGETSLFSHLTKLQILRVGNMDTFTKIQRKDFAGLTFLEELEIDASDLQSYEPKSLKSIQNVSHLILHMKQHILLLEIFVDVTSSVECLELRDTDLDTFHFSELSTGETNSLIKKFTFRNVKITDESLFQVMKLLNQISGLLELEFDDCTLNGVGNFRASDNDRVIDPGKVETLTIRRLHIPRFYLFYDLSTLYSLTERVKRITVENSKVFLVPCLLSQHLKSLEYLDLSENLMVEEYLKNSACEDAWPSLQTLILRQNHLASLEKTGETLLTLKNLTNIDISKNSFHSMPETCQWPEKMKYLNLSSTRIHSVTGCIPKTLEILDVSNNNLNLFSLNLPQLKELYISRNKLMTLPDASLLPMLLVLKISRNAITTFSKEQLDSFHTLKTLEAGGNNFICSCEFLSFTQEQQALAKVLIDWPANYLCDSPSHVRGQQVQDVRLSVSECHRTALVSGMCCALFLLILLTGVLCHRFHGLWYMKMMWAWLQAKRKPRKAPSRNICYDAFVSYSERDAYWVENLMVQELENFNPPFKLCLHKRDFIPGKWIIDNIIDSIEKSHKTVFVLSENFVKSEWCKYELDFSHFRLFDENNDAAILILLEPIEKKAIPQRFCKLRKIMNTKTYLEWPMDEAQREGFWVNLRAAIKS
Procedure: as §1, §2, §3

[1] = at the highest concentration tested

Molecule | EC50 (RAW 264.7 γNO(−) cells; read-out: EC50 IFN-β) | EC50 (RAW 264.7 γNO(−) cells; read-out: EC50 TNF-α) | TNF-α and IFN-β production, dose response (in words) (RAW 264.7 γNO(−) cells) | further results
3-O—[(R)-3-Hydroxy-dodecanoyl]-2-deoxy-2-[(R)-3-dodecanoyloxy-tetradecanoylamino]-(R)-D-glucopyranosyl-(1→6)-2-[(R)-3-hydroxy-dodecanoylamino]-3-O—[(R)-3-dodecanoyloxy-dodecanoyl]-2-deoxy-α-D-glucopyranoside 1,4′-bisphosphate [lipid A 51] | 4 nM | 1.5 nM | – | –
CCCCCCCCCCCCCCCC(=O)O[C@H](CCCCCCCCCCC)CC(=O)N[C@H]1[C@@H](OP(=O)(O)O)O[C@H](CO[C@@H]2O[C@H](CO)[C@@H](OP(=O)(O)O)[C@H](OC(=O)C[C@@H](CCCCCCCCCCC)OC(=O)CCCCCCCCCCCCC)[C@H]2NC(=O)C[C@@H](CCCCCCCCCCC)OC(=O)CCCCCCCCCCC)[C@@H](O)[C@@H]1OC(=O)C[C@H](O)CCCCCCCCCCC [Lipid A 3, 6-O-{2-Deoxy-2-[(R)-3-dodecanoyloxy-tetradecanoylamino]-3-O—[(R)-3-tetradecanoyloxy-tetradecanoyl]-β-D-glucopyranosyl}-2-deoxy-2-[(R)-3-hexadecanoyl-tetradecanoylamino]-3-O—[(R)-3-hydroxy-tetradecanoyl]-α-D-glucopyranose 1,4′-bisphosphate] | – | – | only a partial response at the highest concentration tested | formation of IL-6, RANTES, and IL-1β (RAW 264.7 γNO(−) cells; [1]): no formation; production of TNF-α, IFN-β, and IP-10 (RAW 264.7 γNO(−) cells; [1]): induced the production
CCCCCCCCCCCCCCCC(=O)O[C@H](CCCCCCCCCCC)CC(=O)N[C@@H]1[C@@H](OC(=O)C[C@H](O)CCCCCCCCC)[C@H](O)[C@@H](CO[C@@H]2O[C@H](CO)[C@@H](O)[C@H](OC(=O)C[C@@H](CCCCCCCCC)OC(=O)CCCCCCCCCCC)[C@H]2NC(=O)C[C@@H](CCCCCCCCCCC)OC(=O)CCCCCCCCCCC)O[C@@H]1O [Lipid A 5, 6-O-{2-Deoxy-3-O—[(R)-3-dodecanoyloxy-dodecanoyl]-2-[(R)-3-dodecanoyloxy-tetradecanoylamino]-β-D-glucopyranosyl}-2-deoxy-2-[(R)-3-hexadecanoyloxy-tetredecanoylamino]-3-O—[(R)-3-hydroxy-dodecanoyl]-α-D-glucopyranose] | – | – | inactive | –
(3-Deoxy-α-D-manno-oct-2-ulopyranosyl)onate-(2->6)-3-O—[(R)-3-hydroxy-dodecanoyl]-2-deoxy-2-[(R)-3-dodecanoyloxy-tetradecanoyl]-(R)-D-glucopyranosyl-(1→6)-3-O—[(R)-3-hydroxy-dodecanoyl]-2-deoxy-2-[(R)-3-dodecanoyloxy-tetradecanoyl]-α-D-glucopyranose 1,4′-biphosphate [lipid A 53] | 0.2 nM | 0.092 nM | – | –
Pam3CysSK4 [reference compound] | – | – | – | NF-κB activation, mouse TLR2 (mouse TLR2): able to activate; NF-κB activation, human TLR2 (human TLR2): able to activate
